# Article PMC9800739, “Epigenetic drugs in somatostatin type 2 receptor radionuclide theranostics and radiation transcriptomics in mouse pheochromocytoma models” (Theranostics, 2023)
# Read-outs that look alike come from different tables or passages of the source.
# Assays:
# BON‑1 xenografts = tested on: BON‑1 xenografts; parameters: method as in PMID 27363833; conditions: after treatment with DAC; cited from earlier work
# MTT tumors = conditions: for increase of average SUVmean of tumors vs control cohort: MTT tumors, VPA 250 mg/kg, DAC 1 mg/kg, single or combination, i.p. twice at 72 h interval, DAC P < 0.05, combination P < 0.01; for SUVmean tumor / SUVmax ratio tumor / muscle / SUVmax tumor / SUVmean ratio tumor / muscle: MTT; for percentage of MTT responders (SUV): n = 7 per cohort, threshold control mean + 2×TE
# Description: All animal experiments were carried out according to the guidelines of the German Regulations for Animal Welfare and have been approved by the local Ethical Committee for Animal Experiments. A number of 4×10^6 MPC or MTT cells were re-suspended in 40 µL of Dulbecco's phosphate-buffered saline and injected subcutaneously into the shoulder of 10-15 week-old female nude mice (Rj:NMRI-Foxn1^nu/nu, Janvier Labs, Le Genest-Saint-Isle, France). Prior to imaging procedures, general anesthesia was induced and maintained with inhalation of 10% (v/v) desflurane in 30/10% (v/v) oxygen/air. During anesthesia, animals were continuously warmed at 37°C. Tumor growth was monitored three times per week using caliper measurements. Tumor volume was calculated assuming a tri-axial ellipsoid with the axes a, b, and c using the formula V = π/6×abc. Animals were sacrificed using CO2 inhalation and cervical dislocation.
# Preparation of epigenetic drugs is described in Supplemental Information 1.1. Animals received VPA (1.7×10^‒3 mol/kg ≈ 250 mg/kg), DAC ([…] ≈ 1 mg/kg), or a combination of both, in Dulbecco's phosphate buffered saline (200 µL/30 g body weight), delivered as two consecutive intraperitoneal injections in a 72 h-interval. Applied doses were within the epigenetically effective dose range in mice, as reported elsewhere, [41]-[43]. The estimated human equivalent doses corresponded to 20‒30% of the clinically applied tumor-suppressive doses in patients, [45]. Animals in control groups received Dulbecco's phosphate buffered saline only. Multiple independent experiments were performed, always including animals of all treatment groups (Table 1).
# Small animal positron emission tomography (PET) was performed using the nanoPET/CT scanner (Mediso Medical Imaging Systems, Budapest, Hungary). […] Recording, binning, framing, and image reconstruction were performed as reported previously. Dynamic imaging was performed for 60 min, static imaging between 40‒60 min after radiotracer injection. With each PET scan, a corresponding CT image was recorded and used for anatomical referencing and attenuation correction. […] Standardized uptake values (SUV) were determined and reported as SUVmean (VOI-averaged) and SUVmax (VOI-maximum). Details on quantitative PET image analysis are provided in Supplemental Information 1.4.
# 106 (VOIs) were created (40‒60 min frames) applying fixed thresholds for delineation of tumor
# 107 (30%), muscle (0%), kidneys (25%), and liver (35%). […]
# SSTR2 [1] = target: T1, SSTR2 (Mus musculus, UniProt P30875); experiment: Immunoblotting of SSTR2 in cells after epigenetic treatment; type: cell-based
# T1 construct: endogenous in cells; host or cells: MPC and MTT mouse pheochromocytoma cells (cell homogenates), untreated or treated with VPA + DAC
# T1 sequence (P30875 whole entry): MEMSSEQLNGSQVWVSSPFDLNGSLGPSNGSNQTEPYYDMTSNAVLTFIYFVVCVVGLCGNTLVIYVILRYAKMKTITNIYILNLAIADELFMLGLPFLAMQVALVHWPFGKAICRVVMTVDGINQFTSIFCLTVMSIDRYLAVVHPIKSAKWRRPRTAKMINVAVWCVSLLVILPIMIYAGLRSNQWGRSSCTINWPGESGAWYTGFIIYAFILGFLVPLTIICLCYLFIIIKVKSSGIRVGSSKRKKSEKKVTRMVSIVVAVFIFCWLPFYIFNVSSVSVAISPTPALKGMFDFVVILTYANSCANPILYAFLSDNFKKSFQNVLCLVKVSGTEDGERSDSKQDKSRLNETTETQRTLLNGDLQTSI
# Description: Cells were seeded into collagen-coated microplates or collagen-coated flasks 24 h before epigenetic treatment (ET) start and treated twice (24 h interval) with VPA and DAC, as single and combination doses, respectively. Treatment effects were investigated two to six days (d) after final ET. Preparation of epigenetic drugs is reported in Supplemental Information 1.1.
# Cells seeded into collagen-coated flasks (2.5×10^4/cm^2) were harvested three days after treatment start by incubation with Dulbecco's phosphate-buffered saline containing 2 mmol/L EDTA at 4 °C. Cell pellets were frozen and stored at -70°C. Frozen tumor tissue obtained from allograft mice was cut into 4 × 4 mm pieces.
# Protein extraction from cells and tissues, gel electrophoresis, and immunoblotting was performed as described previously with some modifications. In brief, tissue homogenization was performed using the gentleMACS™ dissociator (Miltenyi Biotech, Bergisch Gladbach, Germany). Immunodetection of proteins was performed using the recombinant primary antibodies anti-SSTR2 [UMB1] (Abcam, Cambridge, UK), anti-CHGA [C-20] (Santa Cruz Biotechnology, Heidelberg, Germany), and anti-ACTB [A5316] (Sigma-Aldrich). Densitometric analysis of protein bands was performed using ImageQuant TL (GE Healthcare, Chicago, IL, USA).
# SSTR2 [2] = conditions: cited from earlier work; for SSTR2 expression (effect): BON-1 cells, monotherapies and combined application; for SSTR2 gene expression (effect): QGP-1 cells
# Description: HDAC and DNMT inhibitors can have different impacts depending on the cellular background. For example, in QGP-1 cells, DAC induced, but VPA inhibited SSTR2 gene expression.
# MPC tumors = experiment: Tumor growth of MPC allografts; type: in vivo, mouse; conditions: PET cohorts; for Vtumor, ET start: day 0 baseline, mean ± SEM; for Vtumor, ET start + 4 d: day 4, mean ± SEM
# Description: During anesthesia, animals were continuously warmed at 37°C. […] Animals were sacrificed using CO2 inhalation and cervical dislocation. […]
# 70 1.1 Preparation of epigenetic drugs
# 71 For in vitro application, VPA was freshly dissolved in cell culture medium and added to the
# 72 cells at final concentrations between 10‒5 and 10‒2 mol/L. DAC was dissolved in H2O to obtain
# 73 a 10‒4 mol/L stock solution that was stored at ‒20 °C. For each experiment, aliquots of the DAC
# 74 stock were thawed and added to the cells at final concentrations between 10‒8 and 10‒5 mol/L.
# 75 For in vivo application, VPA was dissolved at 0.26 mol/L in Dulbecco’s phosphate-buffered
# 76 saline. DAC was dissolved at 0.04 mol/L in acetic acid (9.6 mol/L) to obtain a stock solution
# 77 that was further diluted to 6.6×10‒4 mol/L in Dulbecco’s phosphate buffered. […]
# 88 1.3 Tumor volumes in animal cohorts
# 89 Animals with higher initial tumor volume were specifically included in cohorts that received
# 90 epigenetic drugs in order to compensate for the growth-reducing effects of ET and to match
# 91 tumor volumes as closely as possible across cohorts at the time of radiopharmaceutical injection
# [3] = [64Cu]Cu-DOTA-TATE, 40‒60 min p.i., day 1 after final ET, control or VPA 250 mg/kg, DAC 1 mg/kg days −3 and 0, mean ± SEM, DAC P < 0.05, VPA+DAC P < 0.001
# [4] = as SUVmean, mean ± SEM, DAC P < 0.05
# [5] = as SUVmean, mean ± SEM, VPA+DAC P < 0.01
smiles,measurement,setting,value
"Nc1ncn([C@H]2C[C@H](O)[C@@H](CO)O2)c(=O)n1 [DAC, 5-Aza-2'-deoxycytidine]",increase in [68Ga]Ga-DOTA-TATE uptake,BON‑1 xenografts,approximately 2 fold
same,increase of average SUVmean of tumors vs control cohort,MTT tumors,1.7 fold
same,SUVmean tumor,MTT tumors; [3],0.88 ± 0.13
same,SUVmax ratio tumor / muscle,"MTT tumors; animal 1, 40‒60 min p.i.",4.01
same,SUVmax tumor,"MTT tumors; animal 1, 40‒60 min p.i.",0.83
same,SUVmean ratio tumor / muscle,"MTT tumors; animal 1, 40‒60 min p.i.",4.91
same,SUVmean tumor,"MTT tumors; animal 1, 40‒60 min p.i.",0.38
same,SUVmax ratio tumor / muscle,"MTT tumors; animal 2, 40‒60 min p.i.",6.62
same,SUVmax tumor,"MTT tumors; animal 2, 40‒60 min p.i.",1.52
same,SUVmean ratio tumor / muscle,"MTT tumors; animal 2, 40‒60 min p.i.",7.82
same,SUVmean tumor,"MTT tumors; animal 2, 40‒60 min p.i.",0.65
same,SUVmax ratio tumor / muscle,"MTT tumors; animal 3, 40‒60 min p.i.",5.31
same,SUVmax tumor,"MTT tumors; animal 3, 40‒60 min p.i.",1.66
same,SUVmean ratio tumor / muscle,"MTT tumors; animal 3, 40‒60 min p.i.",8.27
same,SUVmean tumor,"MTT tumors; animal 3, 40‒60 min p.i.",0.77
same,SUVmax ratio tumor / muscle,"MTT tumors; animal 4, 40‒60 min p.i.",11.0
same,SUVmax tumor,"MTT tumors; animal 4, 40‒60 min p.i.",2.00
same,SUVmean ratio tumor / muscle,"MTT tumors; animal 4, 40‒60 min p.i.",12.6
same,SUVmean tumor,"MTT tumors; animal 4, 40‒60 min p.i.",0.80
same,SUVmax ratio tumor / muscle,"MTT tumors; animal 5, 40‒60 min p.i.",7.68
same,SUVmax tumor,"MTT tumors; animal 5, 40‒60 min p.i.",1.88
same,SUVmean ratio tumor / muscle,"MTT tumors; animal 5, 40‒60 min p.i.",11.5
same,SUVmean tumor,"MTT tumors; animal 5, 40‒60 min p.i.",0.93
same,SUVmax ratio tumor / muscle,"MTT tumors; animal 6, 40‒60 min p.i.",14.7
same,SUVmax tumor,"MTT tumors; animal 6, 40‒60 min p.i.",2.71
same,SUVmean ratio tumor / muscle,"MTT tumors; animal 6, 40‒60 min p.i.",17.9
same,SUVmean tumor,"MTT tumors; animal 6, 40‒60 min p.i.",1.24
same,SUVmax ratio tumor / muscle,"MTT tumors; animal 7, 40‒60 min p.i.",18.9
same,SUVmax tumor,"MTT tumors; animal 7, 40‒60 min p.i.",2.72
same,SUVmean ratio tumor / muscle,"MTT tumors; animal 7, 40‒60 min p.i.",21.3
same,SUVmean tumor,"MTT tumors; animal 7, 40‒60 min p.i.",1.37
same,SUVmax ratio tumor / muscle,"MTT tumors; as SUVmean, mean ± SEM",9.74 ± 2.05
same,SUVmean ratio tumor / muscle,MTT tumors; [4],12.1 ± 2.2
same,SUVmax tumor,MTT tumors; [5],1.90 ± 0.25
same,percentage of MTT responders (SUV),MTT tumors,57%
same,"induction of SSTR2 protein levels and radiotracer uptake, comparison",SSTR2 [1]; MPC and MTT models,more effectively compared to VPA
same,SSTR2 up-regulation compared to controls (SSTR2/ACTB),"SSTR2 [1]; MPC cells, DAC 10^-6 mol/L, final ET + 2 d",5.3 fold
same,SSTR2 expression (effect),SSTR2 [2],increased
same,SSTR2 gene expression (effect),SSTR2 [2],induced
same,"Vtumor, ET start",MPC tumors,0.39 ± 0.16 cm3
same,"Vtumor, ET start + 4 d",MPC tumors,0.57 ± 0.18 cm3
"CCCC(CCC)C(=O)O [VPA, valproic acid]",increase of average SUVmean of tumors vs control cohort,MTT tumors,1.4 fold
same,SUVmean tumor,MTT tumors; [3],0.73 ± 0.08
same,SUVmax ratio tumor / muscle,"MTT tumors; animal 1, 40‒60 min p.i.",3.3
same,SUVmax tumor,"MTT tumors; animal 1, 40‒60 min p.i.",0.69
same,SUVmean ratio tumor / muscle,"MTT tumors; animal 1, 40‒60 min p.i.",3.20
same,SUVmean tumor,"MTT tumors; animal 1, 40‒60 min p.i.",0.34
same,SUVmax ratio tumor / muscle,"MTT tumors; animal 2, 40‒60 min p.i.",4.72
same,SUVmax tumor,"MTT tumors; animal 2, 40‒60 min p.i.",1.41
same,SUVmean ratio tumor / muscle,"MTT tumors; animal 2, 40‒60 min p.i.",10.52
same,SUVmean tumor,"MTT tumors; animal 2, 40‒60 min p.i.",0.70
same,SUVmax ratio tumor / muscle,"MTT tumors; animal 3, 40‒60 min p.i.",8.25
same,SUVmax tumor,"MTT tumors; animal 3, 40‒60 min p.i.",1.61
same,SUVmean ratio tumor / muscle,"MTT tumors; animal 3, 40‒60 min p.i.",7.63
same,SUVmean tumor,"MTT tumors; animal 3, 40‒60 min p.i.",0.71
same,SUVmax ratio tumor / muscle,"MTT tumors; animal 4, 40‒60 min p.i.",10.8
same,SUVmax tumor,"MTT tumors; animal 4, 40‒60 min p.i.",1.60
same,SUVmean ratio tumor / muscle,"MTT tumors; animal 4, 40‒60 min p.i.",11.4
same,SUVmean tumor,"MTT tumors; animal 4, 40‒60 min p.i.",0.73
same,SUVmax ratio tumor / muscle,"MTT tumors; animal 5, 40‒60 min p.i.",5.31
same,SUVmax tumor,"MTT tumors; animal 5, 40‒60 min p.i.",1.62
same,SUVmean ratio tumor / muscle,"MTT tumors; animal 5, 40‒60 min p.i.",7.80
same,SUVmean tumor,"MTT tumors; animal 5, 40‒60 min p.i.",0.74
same,SUVmax ratio tumor / muscle,"MTT tumors; animal 6, 40‒60 min p.i.",5.70
same,SUVmax tumor,"MTT tumors; animal 6, 40‒60 min p.i.",1.73
same,SUVmean ratio tumor / muscle,"MTT tumors; animal 6, 40‒60 min p.i.",9.73
same,SUVmean tumor,"MTT tumors; animal 6, 40‒60 min p.i.",0.86
same,SUVmax ratio tumor / muscle,"MTT tumors; animal 7, 40‒60 min p.i.",6.06
same,SUVmax tumor,"MTT tumors; animal 7, 40‒60 min p.i.",2.23
same,SUVmean ratio tumor / muscle,"MTT tumors; animal 7, 40‒60 min p.i.",9.95
same,SUVmean tumor,"MTT tumors; animal 7, 40‒60 min p.i.",1.06
same,SUVmax ratio tumor / muscle,"MTT tumors; as SUVmean, mean ± SEM",6.30 ± 0.94
same,SUVmean ratio tumor / muscle,MTT tumors; [4],8.60 ± 1.04
same,SUVmax tumor,MTT tumors; [5],1.55 ± 0.17
same,percentage of MTT responders (SUV),MTT tumors,29%
same,SSTR2 expression (effect),SSTR2 [2],increased
same,SSTR2 gene expression (effect),SSTR2 [2],inhibited
same,"stimulating effects on SSTR2 expression and [111In]In-DOTA-TATE uptake, reversibility",SSTR2 [2]; one day after VPA withdrawal,largely reversible one day after VPA withdrawal
same,"Vtumor, ET start",MPC tumors,0.27 ± 0.13 cm3
same,"Vtumor, ET start + 4 d",MPC tumors,0.46 ± 0.23 cm3
